“And” between values parts separate entries of the source, which are not always exact repeats. Equal entries are not always repeated.
What was measured:
SH-SY5Y cells = experiment: Effect on Aβ25-35 peptide-induced cell death (MTT assay); type: cell-based; details: Homo sapiens, read-out: increase in cell viability
Experimental: Lyophilized synthetic Aβ25-35 peptide was dissolved in sterile water at a concentration of 2 mM, aliquoted and kept at -80°C until use. Aliquots were diluted in culture medium to achieve a final concentration of 30 µM and incubated for 72h at 37°C to form aggregated amyloid. SH-SY5Y cells were seeded in 96-well culture plates at a density of 12 × 10^4 cells per well in DMEM/F12 (1 :1) medium supplemented with 10% fetal bovine serum, 1X non-essential amino acids, 100 units/ml penicillin and 10 mg/ml streptomycin (Dutscher, France). Cultures were kept under a CO2/air (5%/95%) humidified atmosphere at 37°C. After 24h of incubation, the cultures were treated with 100 µl of the compound BIGI-3h or DMSO (0.1%) in DMEM/F12 (1:1) medium supplemented with 1% fetal bovine serum, 1X non-essential amino acids, 100 units/ml penicillin and 10 mg/ml streptomycin. After 24h of treatment, cells were co-incubated with Aβ25-35 peptide (30 µM) with or without the compound BIGI-3h for an additional period of 24h. MTT assay, a common colorimetric assay for assessing cell metabolic activity, was performed as described below.
The cell viability was assessed by measuring the reduction of MTT (3-(4,5-dimethylthiazol-2-yl)-2,5-diphenyltetrazolium bromide) to a formazan product. […] The absorbance at 570 nm and 630 nm (background) was measured using a microplate reader.

mice = experiment: Object Recognition task (ORT), scopolamine-induced memory impairment; type: in vivo
Experimental: For behavioural studies, 50 swiss female 10-week-old weighing 25-30 g were used. Memory impairment was induced by the potent antimuscarinic drug scopolamine hydrobromide (0.5 mg/kg, Sigma) dissolved in saline buffer. To explore the potential of BIGI-3h as a cognitive enhancer, the compound was administered at a dose of 1 mg/kg and 10 mg/kg. For comparison, the antiamnesic effect of donepezil was tested (Tocris Bioscience, R&D Systems Inc.) at a dose of 1 mg/kg. Both products, 3h and donepezil, were dissolved in saline buffer containing 3.6% dimethyl sulfoxide. All drug solutions were independently prepared immediately before their use and were administered intraperitoneally in 10 mL/kg of vehicle volume. Different batches of mice were used for each experiment. The animals were distributed into 5 experimental groups (I-V): control groups (I) mice administered 3.6% DMSO in saline buffer, labelled as "control vehicle"; experimental groups (II-V) consisted of (II) mice administered scopolamine dissolved in 3.6% DMSO in saline buffer, labelled as "scop/DMSO," (III) mice co-administered scopolamine plus Donepezil, labelled as "Scopo/donep," (IV) and (V) mice co-administrated scopolamine plus BIGI-3h at 1mg/Kg and 10mg/Kg labelled respectively "Scopo/3h 1" "Scopo/3h 10".
Spontaneous object recognition was tested as described previously, 28 with slight modifications. All behavioural experiments took place during the light phase of the 12-h light/ dark cycle between 10 am and 3 pm to minimize the influence of circadian rhythm, and they were conducted with the investigators blind to treatments. […] The total time spent in active exploration of each object during T1 and T2 was determined with a computerized tracking system and image analyzer (Ethovision XT, Noldus Information Technology) that tracked the nose, centre and tail points of each mouse^45. As a criterion of active object exploration, it was measured the time spent by the animal directing its nose to the object at a distance of less than 2 cm and/or touching it with the vibrissae or nose. […]

Tau(306-336) peptide = Tau(306-336) peptide (Homo sapiens, UniProt P10636); details: Tau(306-336) 50 µM, inhibitor 50 µM (1:1 ratio); mean ± SEM; 50 µM
Tau(306-336) peptide, sequence (P10636 623-653 limits assumed): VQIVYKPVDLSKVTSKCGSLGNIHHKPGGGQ
Experimental: Subsequently, the sample was aliquoted dried and stored at -20 °C.
Fluorescence data were recorded every 10 min overnight with 1 min shaking at 800 rpm prior to each reading. Each inhibitor was assayed in triplicates in at least two independent experiments. […] Inhibition % are expressed as the mean ± SEM. […] Values were averaged and the presented values are expressed as the mean ± SEM.
Fluorescence data were recorded every 10 min overnight with 1 min shaking at 800 rpm prior to each reading.

CCOC(=O)C1=C(C)N(CCC2CCN(Cc3ccccc3)CC2)C(=O)NC1c1coc2c(Cl)cc(Cl)cc2c1=O (racemic) [BIGI-3h, ethyl 1-(2-(1-benzylpiperidin-4-yl)ethyl)-4-(6,8-dichloro-4-oxo-4H-chromen-3-yl)-6-methyl-2-oxo-1,2,3,4-tetrahydropyrimidine-5-carboxylate]
viability at 10 µM (SH-SY5Y cells): 40.4%
viability at 20 µM (SH-SY5Y cells): 61.4%
recognition index / discrimination index (Figure 5) (mice; 1 mg/kg intraperitoneally with scopolamine 0.5 mg/kg): reversed the short-term memory impairment induced by scopolamine
recognition index / discrimination index (Figure 5) (mice; 10 mg/kg intraperitoneally with scopolamine 0.5 mg/kg, **p < 0.01 vs scopo/DMSO): significantly improved discrimination index
Inhibition of T (306-336) peptide self - aggregation (%) (Tau(306-336) peptide): 73.7% and 73.7 ± 5.4%

From EP4168403B1 (priority 2020, dated 2021)
